ChEMBL document CHEMBL1914411, “Synthesis of lipophilic dimeric C-7/C-7-linked ciprofloxacin and C-6/C-6-linked levofloxacin derivatives. Versatile in vitro biological evaluations of monomeric and dimeric fluoroquinolone derivatives as potential antitumor, antibacterial or antimycobacterial agents” (Eur J Med Chem, 2011)
In brackets after ≈: the same amount, converted by molar mass. Activity calls are given as the source filed them. How the calls were made is not given here.

How the values were obtained:
[1] = system: Staphylococcus aureus; assay: Antimicrobial activity against Staphylococcus aureus CIP 4.83 after 18 to 24 hrs by broth microdilution method; type: functional
[2] = system: Enterococcus hirae; assay: Antimicrobial activity against Enterococcus hirae CIP 5855 after 18 to 24 hrs by broth microdilution method; type: functional
[3] = system: Pseudomonas aeruginosa; assay: Antimicrobial activity against Pseudomonas aeruginosa CIP 82.118 after 18 to 24 hrs by broth microdilution method; type: functional
[4] = system: Escherichia coli; assay: Antimicrobial activity against Escherichia coli CIP 53126 after 18 to 24 hrs by broth microdilution method; type: functional
[5] = system: Mycobacterium tuberculosis; assay: Antimycobacterial activity against Mycobacterium tuberculosis H37Rv after 6 days by MTT colorimetric microassay; type: functional, organism-based; conditions: 144 h
[6] = system: Mycobacterium tuberculosis; assay: Antimycobacterial activity against Mycobacterium tuberculosis H37Rv assessed as growth inhibition at 10 uM after 6 days by MTT colorimetric microassay; type: functional; conditions: 144 h, read-out: GI
[7] = system: Mycobacterium tuberculosis; assay: Antimycobacterial activity against Mycobacterium tuberculosis H37Rv assessed as growth inhibition at 0.1 uM after 6 days by MTT colorimetric microassay; type: functional, organism-based
[8] = Solubility of compound in cell medium at 20 uM at 37 degC after 24 hrs; type: physicochemical
[9] = Antiproliferative activity against human U373MG cells after 120 hrs by MTT asasy; type: functional, cell-based, U-373MG ATCC; conditions: U373 MG
[10] = system: A549; assay: Antiproliferative activity against human A549 cells after 120 hrs by MTT asasy; type: functional, cell-based; conditions: A549, 120 h
[11] = system: PC-3; assay: Antiproliferative activity against human PC3 cells after 120 hrs by MTT asasy; type: functional, cell-based; conditions: PC-3, 120 h
[12] = system: LoVo; assay: Antiproliferative activity against human LoVo cells after 120 hrs by MTT asasy; type: functional, cell-based
[13] = system: MCF7; assay: Antiproliferative activity against human MCF7 cells after 120 hrs by MTT asasy; type: functional, cell-based; conditions: MCF7, 120 h
[14] = system: Mycobacterium tuberculosis; assay: Antimycobacterial activity against Mycobacterium tuberculosis H37Rv assessed as growth inhibition at 1 uM after 6 days by MTT colorimetric microassay; type: functional; conditions: 144 h, read-out: GI
[15] = system: Staphylococcus aureus; assay: Antimicrobial activity against methicillin-resistant Staphylococcus aureus ATCC 33591 after 18 to 24 hrs by broth microdilution method; type: functional
[16] = system: Staphylococcus aureus; assay: Antimicrobial activity against methicillin-resistant Staphylococcus aureus ATCC 33592 after 18 to 24 hrs by broth microdilution method; type: functional
[17] = system: Staphylococcus aureus; assay: Antimicrobial activity against multidrug-resistant Staphylococcus aureus isolate 1 after 18 to 24 hrs by broth microdilution method; type: functional
[18] = system: Staphylococcus aureus; assay: Antimicrobial activity against multidrug-resistant Staphylococcus aureus isolate 2 after 18 to 24 hrs by broth microdilution method; type: functional
[19] = system: Staphylococcus aureus; assay: Ratio of ciprofloxacin MIC to compound MIC for methicillin-resistant Staphylococcus aureus ATCC 33592; type: functional
[20] = system: Staphylococcus aureus; assay: Ratio of ciprofloxacin MIC to compound MIC for multidrug-resistant Staphylococcus aureus isolate 1; type: functional
[21] = system: Staphylococcus aureus; assay: Ratio of ciprofloxacin MIC to compound MIC for multidrug-resistant Staphylococcus aureus isolate 2; type: functional

SMILES	MBC [1] [µM]	MIC [1] [µM]	MBC [2] [µM]	MIC [2] [µM]	MBC [3] [µM]	MIC [3] [µM]	MBC [4] [µM]	MIC [4] [µM]	IC50 [5] [nM]	MIC [5] [µM]	inhibition of growth at 10 µM [6] [%]	growth inhibition (GI) [7]	solubility [8]	IC50 [9] [nM]	MBC [15] [µM]	MIC [15] [µM]	MBC [17] [µM]	MIC [17] [µM]	MBC [18] [µM]	MIC [18] [µM]	other results
C[C@H]1COc2c(N3CCN(C)CC3)c(F)cc3c(=O)c(C(=O)NCCCCCCCCCCNC(=O)c4cn5c6c(c(N7CCN(C)CC7)c(F)cc6c4=O)OC[C@@H]5C)cn1c23	7.8 (≈ 6.7 µg/mL)	7.8 (≈ 6.7 µg/mL)	62.5 (≈ 53.7 µg/mL)	31.2 (≈ 26.8 µg/mL)	62.5 (≈ 53.7 µg/mL)	31.2 (≈ 26.8 µg/mL)	≤ 0.97	≤ 0.97	2400	5 (≈ 4.3 µg/mL)	60	inactive	Insoluble								
C[C@H]1COc2c(N3CCN(C)CC3)c(F)cc3c(=O)c(C(=O)NCCCCCCCCCNC(=O)c4cn5c6c(c(N7CCN(C)CC7)c(F)cc6c4=O)OC[C@@H]5C)cn1c23	31.2 (≈ 26.4 µg/mL)	31.2 (≈ 26.4 µg/mL)	31.2 (≈ 26.4 µg/mL)	31.2 (≈ 26.4 µg/mL)	250 (≈ 211 µg/mL)	62.5 (≈ 52.8 µg/mL)	3.9 (≈ 3.3 µg/mL)	3.9 (≈ 3.3 µg/mL)	2500	5 (≈ 4.23 µg/mL)	60	inactive	soluble	200							IC50 [10]: 200 nM; IC50 [11]: 200 nM; IC50 [12]: 200 nM; IC50 [13]: 200 nM; inhibition of growth at 1 µM [14]: 20%
C[C@H]1COc2c(N3CCN(C)CC3)c(F)cc3c(=O)c(C(=O)NCCCCCCCCCCCCNC(=O)c4cn5c6c(c(N7CCN(C)CC7)c(F)cc6c4=O)OC[C@@H]5C)cn1c23	1.9 (≈ 1.69 µg/mL)	1.9 (≈ 1.69 µg/mL)	3.9 (≈ 3.46 µg/mL)	3.9 (≈ 3.46 µg/mL)	31.2 (≈ 27.7 µg/mL)	31.2 (≈ 27.7 µg/mL)	≤ 0.97	≤ 0.97	2100	5 (≈ 4.44 µg/mL)	60	inactive	Insoluble								
CCCCOC(=O)N1CCN(c2cc3c(cc2F)c(=O)c(C(=O)O)cn3C2CC2)CC1	≤ 0.12	≤ 0.06	7.8 (≈ 3.37 µg/mL)	3.9 (≈ 1.68 µg/mL)	250 (≈ 108 µg/mL)	62.5 (≈ 27 µg/mL)	31.2 (≈ 13.5 µg/mL)	7.8 (≈ 3.37 µg/mL)				inactive		31000	0.12 (≈ 0.0518 µg/mL)	0.03 (≈ 0.0129 µg/mL)	500 (≈ 216 µg/mL)	62.5 (≈ 27 µg/mL)	31.2 (≈ 13.5 µg/mL)	31.2 (≈ 13.5 µg/mL)	MBC [16]: 0.12 µM (≈ 0.0518 µg/mL); Ratio [19]: 63
O=C(O)c1cn(C2CC2)c2cc(N3CCN(C(=O)CCCCCCCCCCCCCC(=O)N4CCN(c5cc6c(cc5F)c(=O)c(C(=O)O)cn6C5CC5)CC4)CC3)c(F)cc2c1=O	1.9 (≈ 1.71 µg/mL)	≤ 0.06	500 (≈ 450 µg/mL)	125 (≈ 112 µg/mL)	250 (≈ 225 µg/mL)	62.5 (≈ 56.2 µg/mL)	500 (≈ 450 µg/mL)	62.5 (≈ 56.2 µg/mL)			40	inactive			0.97 (≈ 0.872 µg/mL)	0.06 (≈ 0.0539 µg/mL)	500 (≈ 450 µg/mL)	1.9 (≈ 1.71 µg/mL)	31.2 (≈ 28.1 µg/mL)	15.6 (≈ 14 µg/mL)	MBC [16]: 0.48 µM (≈ 0.432 µg/mL); MIC [16]: 0.06 µM (≈ 0.0539 µg/mL); Ratio [19]: 8
CCCCCCCCCC(=O)OCC(=O)N1CCN(c2cc3c(cc2F)c(=O)c(C(=O)O)cn3C2CC2)CC1	≤ 0.97	≤ 0.97	15.6 (≈ 8.48 µg/mL)	7.8 (≈ 4.24 µg/mL)	250 (≈ 136 µg/mL)	31.2 (≈ 17 µg/mL)	15.6 (≈ 8.48 µg/mL)	15.6 (≈ 8.48 µg/mL)			> 95	inactive			0.48 (≈ 0.261 µg/mL)	0.24 (≈ 0.13 µg/mL)	15.6 (≈ 8.48 µg/mL)	7.8 (≈ 4.24 µg/mL)	15.6 (≈ 8.48 µg/mL)	7.8 (≈ 4.24 µg/mL)	Ratio [20]: 2; Ratio [21]: 2
CCCCCC(=O)OCC(=O)N1CCN(c2cc3c(cc2F)c(=O)c(C(=O)O)cn3C2CC2)CC1	≤ 0.24	≤ 0.03	≤ 0.97	≤ 0.97	250 (≈ 122 µg/mL)	62.5 (≈ 30.5 µg/mL)	31.2 (≈ 15.2 µg/mL)	31.2 (≈ 15.2 µg/mL)			> 95	inactive			0.06 (≈ 0.0293 µg/mL)	0.03 (≈ 0.0146 µg/mL)	500 (≈ 244 µg/mL)	15.6 (≈ 7.61 µg/mL)	15.6 (≈ 7.61 µg/mL)	7.8 (≈ 3.8 µg/mL)	Ratio [20]: 2; Ratio [21]: 2
C[C@H]1COc2c(N3CCN(C)CC3)c(F)cc3c(=O)c(C(=O)O)cn1c23 [LEVOFLOXACIN]	≤ 0.97	≤ 0.97	1.9 (≈ 0.687 µg/mL)	≤ 0.97	≤ 0.97	≤ 0.97	≤ 0.97	≤ 0.97	800	2.5 (≈ 0.903 µg/mL)	96	inactive		67000							IC50 [10]: 67000 nM; IC50 [11]: 67000 nM; IC50 [13]: 67000 nM; inhibition of growth at 1 µM [14]: 85%
